Reference: US10034879B2, “Substituted benzaldehyde compounds and methods for their use in increasing tissue oxygenation” (Global Blood Therapeutics, Inc., priority 2011, dated 2018)
“And” between values parts separate entries of the source, which are not always exact repeats. Identical values can stand only once. Like-named read-outs stand apart in the source and are kept apart here.

Experiment: Pharmacokinetic I.V. study in rat
Assay type: in vivo, Sprague Dawley rats
Details: 7.8 mpk IV; for Vd: read-out: Vss; for half-life: read-out: t½ beta
Procedure: Sprague Dawley rats were treated with 7.8 mg/Kg of Compound 43 dissolved in 10% DMA:[…]:16% ca vitron. At specified time points 10 uL of whole blood/plasma was removed from rats and treated with 490 ul pH 3 buffer+500 uL ACN/IS, then shaken for 1 hour, centrifuged for 10 minutes at […] at 4 C. The supernatant was transferred to a filter plate and centrifuged at 2000 rpm for 1 minute at 4 C. The samples were then analyzed by LC-MS/MS monitoring parent aldehyde.

[1] = HCl salt, 0 min, animals A, B, C
[2] = HCl salt, 5 min, animals A, B, C, 7.8 mg/kg
[3] = HCl salt, 15 min, animals A, B, C, 7.8 mg/kg
[4] = HCl salt, 30 min, animals A, B, C, 7.8 mg/kg
[5] = HCl salt, 60 min, animals A, B, C, 7.8 mg/kg
[6] = HCl salt, 120 min, animals A, B, C, 7.8 mg/kg
[7] = HCl salt, 240 min, animals A, B, C, 7.8 mg/kg
[8] = HCl salt, 1440 min, animals A, B, C, 7.8 mg/kg
[9] = Sprague-Dawley, 7.8 mg/kg, Plasma
[10] = Sprague-Dawley, whole blood, 7.8 mg/kg, Blood

SMILES: CC(C)n1nccc1-c1ncccc1COc1cccc(O)c1C=O [Compound 43, 2-hydroxy-6-((2-(1-isopropyl-1H-pyrazol-5-yl)pyridin-3-yl)methoxy)benzaldehyde]
- AUClast (Blood): 215846.3 µmol·min/L
- blood conc [1]: BLLOQ
- plasma conc [1]: BLLOQ
- blood conc [2]: 246 µM and 281 µM
- plasma conc [2]: 8.68 µM and 7.44 µM
- blood conc [3]: 341 µM and 285 µM
- plasma conc [3]: 8.42 µM and 7.16 µM
- blood conc [4]: 333 µM and 292 µM
- plasma conc [4]: 7.1 µM
- blood conc [5]: 203 µM and 285 µM
- plasma conc [5]: 7.52 µM and 7.22 µM
- blood conc [6]: 274 µM and 280 µM
- plasma conc [6]: 6.02 µM and 5.22 µM
- blood conc [7]: 225 µM and 259 µM
- plasma conc [7]: 5.24 µM and 5.88 µM
- plasma conc (HCl salt, 480 min, animals A, B, C, 7.8 mg/kg): 2.66 µM and 3.15 µM
- blood conc [8]: 85 µM and 70.8 µM
- plasma conc [8]: 1.38 µM and 1.51 µM
- AUClast (Plasma): 4114.8 µmol·min/L
- clearance [9]: 4.45 mL/min/kg
- Vd [9]: 4.11 L/kg
- half-life [9]: 10.3 h
- concentration at 5 min (Sprague-Dawley, plasma, iv, 7.8 mg/kg, HCl salt, 5 min, animals A, B, C, read-out: plasma conc): 7.56 µM
- concentration at 15 min (Sprague-Dawley, plasma, iv, 7.8 mg/kg, HCl salt, 15 min, animals A, B, C, read-out: plasma conc): 8.38 µM
- concentration at 30 min (Sprague-Dawley, plasma, iv, 7.8 mg/kg, HCl salt, 30 min, animals A, B, C, read-out: plasma conc): 8.66 µM
- concentration at 60 min (Sprague-Dawley, plasma, iv, 7.8 mg/kg, HCl salt, 60 min, animals A, B, C, read-out: plasma conc): 6.12 µM
- concentration at 120 min (Sprague-Dawley, plasma, iv, 7.8 mg/kg, HCl salt, 120 min, animals A, B, C, read-out: plasma conc): 3.92 µM
- concentration at 240 min (Sprague-Dawley, plasma, iv, 7.8 mg/kg, HCl salt, 240 min, animals A, B, C, read-out: plasma conc): 3.72 µM
- concentration at 480 min (Sprague-Dawley, plasma, iv, 7.8 mg/kg, HCl salt, 480 min, animals A, B, C, read-out: plasma conc): 2.06 µM
- concentration at 1440 min (Sprague-Dawley, plasma, iv, 7.8 mg/kg, HCl salt, 1440 min, animals A, B, C, read-out: plasma conc): 1.07 µM
- clearance [10]: 0.08 mL/min/kg
- Vd [10]: 0.09 L/kg
- half-life [10]: 12.5 h
- concentration at 5 min (Sprague-Dawley, whole blood, iv, 7.8 mg/kg, HCl salt, 5 min, animals A, B, C, read-out: blood conc): 259 µM
- concentration at 15 min (Sprague-Dawley, whole blood, iv, 7.8 mg/kg, HCl salt, 15 min, animals A, B, C, read-out: blood conc): 287 µM
- concentration at 30 min (Sprague-Dawley, whole blood, iv, 7.8 mg/kg, HCl salt, 30 min, animals A, B, C, read-out: blood conc): 283 µM
- concentration at 60 min (Sprague-Dawley, whole blood, iv, 7.8 mg/kg, HCl salt, 60 min, animals A, B, C, read-out: blood conc): 256 µM
- concentration at 120 min (Sprague-Dawley, whole blood, iv, 7.8 mg/kg, HCl salt, 120 min, animals A, B, C, read-out: blood conc): 263 µM
- concentration at 240 min (Sprague-Dawley, whole blood, iv, 7.8 mg/kg, HCl salt, 240 min, animals A, B, C, read-out: blood conc): 248 µM
- concentration at 1440 min (Sprague-Dawley, whole blood, iv, 7.8 mg/kg, HCl salt, 1440 min, animals A, B, C, read-out: blood conc): 81.1 µM
